From US5753617A, “Peptide inhibitors of cellular adhesion” (Centocor, Inc., priority 1995, dated 1998)
Values joined by “and” are separate entries in the source; they are usually repeats but may differ in a detail not shown here. Equal entries are not always repeated. Where two headings read alike, the source gives them in different places. Where a SMILES comes first, the peptide text is derived from it. Bridges are numbered along the chain shown (N, C = ends). [ ]: non-standard residue; d: D form.

Experiments:
[1] = disulfide bond, water
P-selectin = target: T1, P-selectin (Homo sapiens, UniProt P16109); experiment: Inhibition of human neutrophil adhesion to purified P-selectin immobilized on plastic wells; format: cell-based; settings: inhibiting the binding of human neutrophils to P-selectin
T1 construct: P-selectin is isolated from human platelet lysates; from tissue; host or cells: human platelets (outdated platelet packs from a blood bank)
T1 sequence (P16109 42-830): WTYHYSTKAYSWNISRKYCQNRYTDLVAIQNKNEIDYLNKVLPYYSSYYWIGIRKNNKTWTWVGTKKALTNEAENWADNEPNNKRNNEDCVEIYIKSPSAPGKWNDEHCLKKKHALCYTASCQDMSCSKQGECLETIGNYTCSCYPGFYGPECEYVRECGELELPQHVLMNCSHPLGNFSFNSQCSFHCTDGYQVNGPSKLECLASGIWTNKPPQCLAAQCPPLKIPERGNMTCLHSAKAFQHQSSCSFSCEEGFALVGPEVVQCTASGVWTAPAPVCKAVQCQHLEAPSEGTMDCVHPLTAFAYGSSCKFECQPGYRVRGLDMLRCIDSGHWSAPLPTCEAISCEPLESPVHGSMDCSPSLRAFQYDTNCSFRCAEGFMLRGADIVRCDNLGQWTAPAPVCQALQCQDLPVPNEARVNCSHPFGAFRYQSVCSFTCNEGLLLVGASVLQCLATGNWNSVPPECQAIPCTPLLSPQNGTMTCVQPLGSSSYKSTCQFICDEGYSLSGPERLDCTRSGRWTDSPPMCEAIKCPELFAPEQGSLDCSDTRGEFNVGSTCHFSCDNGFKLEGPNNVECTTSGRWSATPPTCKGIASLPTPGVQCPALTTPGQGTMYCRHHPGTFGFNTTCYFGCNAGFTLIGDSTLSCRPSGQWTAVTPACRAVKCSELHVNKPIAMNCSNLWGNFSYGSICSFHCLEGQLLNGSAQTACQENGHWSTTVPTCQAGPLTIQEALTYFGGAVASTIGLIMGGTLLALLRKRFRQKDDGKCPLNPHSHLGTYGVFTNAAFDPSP
Method in brief: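 Isolated human neutrophils (2×10^5 per well) in HBSS with Ca2+/Mg2+ and HSA added to wells coated overnight at 4° C with platelet-derived P-selectin (5 micrograms/mL), HSA-blocked; 20 min at 22° C. Nonadherent cells removed by inverted centrifugation at 150 g; adherent cells quantified by myeloperoxidase activity.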

SMILES	IC50 (P-selectin)	other results
CC(C)[C@@H](NC(=O)[C@@H](Cc1c[nH]c2ccccc12)NC(=O)[C@H](NC(=O)[C@@H](Cc1c[nH]c2ccccc12)NC(=O)[C@H]1CSSC[C@@H](NC(=O)[C@@H](CCCCN)NC(=O)[C@H](N)CCCNC(=N)N)C(=O)NCC(=O)N[C@@H](CC(=O)O)C(=O)N1)[C@H](C)O)C(N)=O [(42)] (H-[dR][dK][dC]GD[dC][dW][dT][dW][dV]-NH2; disulfide 3-6)	944 µM	ring closure, yield of all isomers ([1]; from CC(C)[C@@H](NC(=O)[C@@H](Cc1c[nH]c2ccccc12)NC(=O)[C@H](NC(=O)[C@@H](Cc1c[nH]c2ccccc12)NC(=O)[C@@H](CS)NC(=O)[C@H](CC(=O)O)NC(=O)CNC(=O)[C@@H](CS)NC(=O)[C@@H](CCCCN)NC(=O)[C@H](N)CCCNC(=N)N)[C@H](C)O)C(N)=O, Cu wire, dilute NH4OH, pH 8, 3.19 mM, 20.0 h): 9.7%
CC(C)[C@@H](NC(=O)[C@@H](Cc1c[nH]c2ccccc12)NC(=O)[C@H](NC(=O)[C@@H](Cc1c[nH]c2ccccc12)NC(=O)[C@H]1CSSC[C@@H](NC(=O)[C@@H](CCCCN)NC(=O)[C@H](N)CCCNC(=N)N)C(=O)N[C@H](CCCNC(=N)N)C(=O)N[C@@H](Cc2ccccc2)C(=O)N1)[C@H](C)O)C(N)=O [(45)] (H-[dR][dK][dC][dR]F[dC][dW][dT][dW][dV]-NH2; disulfide 3-6)	263 µM	ring closure, yield of all isomers ([1]; from CC(C)[C@@H](NC(=O)[C@@H](Cc1c[nH]c2ccccc12)NC(=O)[C@H](NC(=O)[C@@H](Cc1c[nH]c2ccccc12)NC(=O)[C@@H](CS)NC(=O)[C@H](Cc1ccccc1)NC(=O)[C@@H](CCCNC(=N)N)NC(=O)[C@@H](CS)NC(=O)[C@@H](CCCCN)NC(=O)[C@H](N)CCCNC(=N)N)[C@H](C)O)C(N)=O, DMSO, 0.357 mM, 25.0 °C, 48.0 h): 15.5%
CC(C)[C@@H](NC(=O)[C@@H](Cc1c[nH]c2ccccc12)NC(=O)[C@H](NC(=O)[C@@H](Cc1c[nH]c2ccccc12)NC(=O)[C@H]1CSSC[C@@H](NC(=O)[C@@H](CCCCN)NC(=O)[C@H](N)CCCNC(=N)N)C(=O)N[C@H](Cc2c[nH]cn2)C(=O)N[C@@H](Cc2ccccc2)C(=O)N1)[C@H](C)O)C(N)=O [(47)] (H-[dR][dK][dC][dH]F[dC][dW][dT][dW][dV]-NH2; disulfide 3-6)	7 µM	ring closure, yield of all isomers ([1]; from CC(C)[C@@H](NC(=O)[C@@H](Cc1c[nH]c2ccccc12)NC(=O)[C@H](NC(=O)[C@@H](Cc1c[nH]c2ccccc12)NC(=O)[C@@H](CS)NC(=O)[C@H](Cc1ccccc1)NC(=O)[C@@H](Cc1c[nH]cn1)NC(=O)[C@@H](CS)NC(=O)[C@@H](CCCCN)NC(=O)[C@H](N)CCCNC(=N)N)[C@H](C)O)C(N)=O, DMSO, 0.698 mM, 24.0 h): 3.5%
CC[C@@H](C)[C@H]1NC(=O)CNC(=O)[C@H](NC(=O)[C@@H](CCCCN)NC(=O)[C@H](N)CCCNC(=N)N)CSSC[C@H](C(=O)N[C@H](Cc2c[nH]c3ccccc23)C(=O)N[C@@H](C(=O)N[C@H](Cc2c[nH]c3ccccc23)C(=O)N[C@@H](C(N)=O)C(C)C)[C@H](C)O)NC1=O [(52)] (H-[dR][dK][dC]G[dI][dC][dW][dT][dW][dV]-NH2; disulfide 3-6)	10.3 µM	ring closure, yield of all isomers ([1]; from CC[C@@H](C)[C@@H](NC(=O)CNC(=O)[C@@H](CS)NC(=O)[C@@H](CCCCN)NC(=O)[C@H](N)CCCNC(=N)N)C(=O)N[C@H](CS)C(=O)N[C@H](Cc1c[nH]c2ccccc12)C(=O)N[C@@H](C(=O)N[C@H](Cc1c[nH]c2ccccc12)C(=O)N[C@@H](C(N)=O)C(C)C)[C@H](C)O, DMSO, 0.341 mM, 25.0 °C, 72.0 h): 16.6%
CC(C)C[C@H]1NC(=O)CNC(=O)[C@H](NC(=O)[C@@H](CCCCN)NC(=O)[C@H](N)CCCNC(=N)N)CSSC[C@H](C(=O)N[C@H](Cc2c[nH]c3ccccc23)C(=O)N[C@@H](C(=O)N[C@H](Cc2c[nH]c3ccccc23)C(=O)N[C@@H](C(N)=O)C(C)C)[C@H](C)O)NC1=O [(53)] (H-[dR][dK][dC]G[dL][dC][dW][dT][dW][dV]-NH2; disulfide 3-6)	18.7 µM	ring closure, yield of all isomers ([1]; from CC(C)C[C@@H](NC(=O)CNC(=O)[C@@H](CS)NC(=O)[C@@H](CCCCN)NC(=O)[C@H](N)CCCNC(=N)N)C(=O)N[C@H](CS)C(=O)N[C@H](Cc1c[nH]c2ccccc12)C(=O)N[C@@H](C(=O)N[C@H](Cc1c[nH]c2ccccc12)C(=O)N[C@@H](C(N)=O)C(C)C)[C@H](C)O, DMSO, 0.252 mM, 25.0 °C, 48.0 h): 17.4%
CC(C)[C@@H](NC(=O)[C@@H](Cc1c[nH]c2ccccc12)NC(=O)[C@H](NC(=O)[C@@H](Cc1c[nH]c2ccccc12)NC(=O)[C@H]1CSSC[C@@H](NC(=O)[C@@H](CCCCN)NC(=O)[C@H](N)CCCNC(=N)N)C(=O)NCC(=O)N[C@H](CCCCN)C(=O)N1)[C@H](C)O)C(N)=O [(55)] (H-[dR][dK][dC]G[dK][dC][dW][dT][dW][dV]-NH2; disulfide 3-6)	59.7 µM	ring closure, yield of all isomers ([1]; from CC(C)[C@@H](NC(=O)[C@@H](Cc1c[nH]c2ccccc12)NC(=O)[C@H](NC(=O)[C@@H](Cc1c[nH]c2ccccc12)NC(=O)[C@@H](CS)NC(=O)[C@@H](CCCCN)NC(=O)CNC(=O)[C@@H](CS)NC(=O)[C@@H](CCCCN)NC(=O)[C@H](N)CCCNC(=N)N)[C@H](C)O)C(N)=O, DMSO, 0.175 mM, 120.0 h): 10.6%
CC(C)[C@@H](NC(=O)[C@@H](Cc1c[nH]c2ccccc12)NC(=O)[C@H](NC(=O)[C@@H](Cc1c[nH]c2ccccc12)NC(=O)[C@H]1CSSC[C@@H](NC(=O)[C@@H](CCCCN)NC(=O)[C@H](N)CCCNC(=N)N)C(=O)N2CCC[C@@H]2C(=O)N[C@@H](Cc2ccccc2)C(=O)N1)[C@H](C)O)C(N)=O [(57)] (H-[dR][dK][dC][dP]F[dC][dW][dT][dW][dV]-NH2; disulfide 3-6)	70.4 µM	ring closure, yield of all isomers ([1]; from CC(C)[C@@H](NC(=O)[C@@H](Cc1c[nH]c2ccccc12)NC(=O)[C@H](NC(=O)[C@@H](Cc1c[nH]c2ccccc12)NC(=O)[C@@H](CS)NC(=O)[C@H](Cc1ccccc1)NC(=O)[C@H]1CCCN1C(=O)[C@@H](CS)NC(=O)[C@@H](CCCCN)NC(=O)[C@H](N)CCCNC(=N)N)[C@H](C)O)C(N)=O, air, Cu wire, NH4OH, 0.42 mM, 25.0 °C, 6.0 h): 8.7%
CC(C)[C@@H](NC(=O)[C@@H](Cc1c[nH]c2ccccc12)NC(=O)[C@H](NC(=O)[C@@H](Cc1c[nH]c2ccccc12)NC(=O)[C@H]1CSSC[C@@H](NC(=O)[C@@H](CCCCN)NC(=O)[C@H](N)CCCNC(=N)N)C(=O)NCC(=O)N[C@@H](CCC(N)=O)C(=O)N1)[C@H](C)O)C(N)=O [(65)] (H-[dR][dK][dC]GQ[dC][dW][dT][dW][dV]-NH2; disulfide 3-6)	46.2 µM and 78.3 µM	ring closure, yield of all isomers ([1]; from CC(C)[C@@H](NC(=O)[C@@H](Cc1c[nH]c2ccccc12)NC(=O)[C@H](NC(=O)[C@@H](Cc1c[nH]c2ccccc12)NC(=O)[C@@H](CS)NC(=O)[C@H](CCC(N)=O)NC(=O)CNC(=O)[C@@H](CS)NC(=O)[C@@H](CCCCN)NC(=O)[C@H](N)CCCNC(=N)N)[C@H](C)O)C(N)=O, Cu wire, NH4OH (printed NH2OH), 3.16 mM, 20.0 h): 6.1%
CC(C)[C@@H](NC(=O)[C@@H](Cc1c[nH]c2ccccc12)NC(=O)[C@H](NC(=O)[C@@H](Cc1c[nH]c2ccccc12)NC(=O)[C@H]1CSSC[C@@H](NC(=O)[C@@H](CCCCN)NC(=O)[C@H](N)CCCNC(=N)N)C(=O)NCC(=O)N[C@@H](CCC(=O)O)C(=O)N1)[C@H](C)O)C(N)=O [(66)] (H-[dR][dK][dC]GE[dC][dW][dT][dW][dV]-NH2; disulfide 3-6)	287 µM	ring closure, yield of all isomers ([1]; from CC(C)[C@@H](NC(=O)[C@@H](Cc1c[nH]c2ccccc12)NC(=O)[C@H](NC(=O)[C@@H](Cc1c[nH]c2ccccc12)NC(=O)[C@@H](CS)NC(=O)[C@H](CCC(=O)O)NC(=O)CNC(=O)[C@@H](CS)NC(=O)[C@@H](CCCCN)NC(=O)[C@H](N)CCCNC(=N)N)[C@H](C)O)C(N)=O, Cu wire, NH4OH, 3.16 mM, 20.0 h): 7.4%
CC[C@H](C)[C@@H]1NC(=O)CNC(=O)[C@H](NC(=O)[C@@H](CCCCN)NC(=O)[C@H](N)CCCNC(=N)N)CSSC[C@H](C(=O)N[C@H](Cc2c[nH]c3ccccc23)C(=O)N[C@@H](C(=O)N[C@H](Cc2c[nH]c3ccccc23)C(=O)N[C@@H](C(N)=O)C(C)C)[C@H](C)O)NC1=O [(68)] (H-[dR][dK][dC]GI[dC][dW][dT][dW][dV]-NH2; disulfide 3-6)	3.7 µM	ring closure, yield of all isomers ([1]; from CC[C@H](C)[C@H](NC(=O)CNC(=O)[C@@H](CS)NC(=O)[C@@H](CCCCN)NC(=O)[C@H](N)CCCNC(=N)N)C(=O)N[C@H](CS)C(=O)N[C@H](Cc1c[nH]c2ccccc12)C(=O)N[C@@H](C(=O)N[C@H](Cc1c[nH]c2ccccc12)C(=O)N[C@@H](C(N)=O)C(C)C)[C@H](C)O, Cu wire, NH4OH, 3.2 mM, 20.0 h): 2.8%
